The values below come from patent US20130296393A1, “METHOD FOR CONTROLLING CLUBROOT” (ISHIHARA SANGYO KAISHA, LTD., priority 2011, published 2013).

The experiment relates to Plasmodiophora brassicae. As to the kind of experiment: Cabbage clubroot control test, farm field (Example 2 / Comparative Example 2). The following applies: for Disease control value / Disease severity: 77 days after settled planting. Further details: key to Disease control value: control value = {1 − (treated severity/control severity)}×100; key to Disease severity: severity = Σ(plants×index 0–4)/(plants surveyed×4)×100. It is filed as in vivo. From the text: Disease severity={Σ(number of each index of diseased plants×disease index)/(number of plants surveyed×4)}×100
Disease control value={1−(treatment disease severity/control disease severity)}×100
0: No adhesion of clubroot, 1: clubroot adhesion to lateral root, 2: clubroot adhesion to the entire lateral root or clubroot adhesion to a part of tap root, 3: adhesion of large clubroot to tap root, and 4: clubroot adhesion to the entire tap root.
A spore suspension of Plasmodiophora brassicae was sprayed on the entire farm field by using a watering pot to have a fungus density of 1×10^4 fungi/g dry soil. In this farm field, a cabbage (variety: Okina) seedling grown in a cell seedling tray (128 cells/seedling box) was settled-planted by establishing two plantings for each test section containing ten plants (interplant distance: 30 cm, interrow space: 30 cm, planting in two rows). Just after the settled planting, 4 days, 7 days and 11 days after settled planting, the chemical solution for spraying prepared by the same method as in Example 1(1) was drenched into the soil in a ratio of 250 ml/plant. Seventy-seven days after the settled planting, the number of each index of clubroot adhesion to the root was investigated. For comparison, the same test was carried out on a control section where a soil drench treatment with the chemical solution for spraying was not applied.
The test was carried out by the same method as in Example 2 except that in place of the soil drench treatment with the chemical solution for spraying, a chemical solution for spraying prepared by the same method as in Example 1(1) was sprayed on a cabbage (variety: Okina) seedling grown in a cell seedling tray (128 cells/seedling box) at a concentration of 2 liters/cell seedling tray by using a watering pot and these seedlings were settled-planted.
The disease severity and disease control value of Example 2 and Comparative Example 2 were determined by the same methods as in Example 1 and Comparative Example 1. In addition, the weight of cabbage in the aerial part was measured. Furthermore, the test result was shown by the average value of two plantings.

The mark [1] stands for this setting: 50 ppm soil drench 250 ml/plant 4 days after settled planting.
[2] abbreviates: 50 ppm soil drench 250 ml/plant 7 days after settled planting.
Where [3] appears, read: 50 ppm soil drench 250 ml/plant 11 days after settled planting.
[4] abbreviates: 50 ppm soil drench 250 ml/plant just after settled planting.
The mark [5] stands for this setting: 50 ppm solution sprayed on seedlings in cell tray, 2 liters/cell seedling tray, just before settled planting.

The structures appear in SMILES notation.

As for `Cc1ccc(-c2c(Cl)nc(C#N)n2S(=O)(=O)N(C)C)cc1` [cyazofamid, 4-chloro-2-cyano-1-dimethylsulfamoyl-5-(4-methylphenyl)imidazole], the “Weight in the aerial part” value turned out to be 666 g under setting [1]; 579 g under setting [2]; 563 g under setting [3]; 713 g under setting [4]; 745 g under setting [5]. For the same molecule, the Disease control value is, setting by setting: under setting [1], 87; under setting [2], 30; under setting [3], 11; under setting [4], 44; under setting [5], 44. In addition, the Disease severity was 7 under setting [1]; 38 under setting [2]; 48 under setting [3]; 30 under setting [4]; 30 under setting [5].
